Six molecules from PMC9229798, “Antioxidant Activity and Cytotoxicity of Aromatic Oligosulfides” (Molecules, 2022) can be followed below.

“And” between values parts separate entries of the source, which are not always exact repeats. Identical values can stand only once.

The subject of assay [1] is MCF-7. Kind of assay: MTT assay. In kind it is cell-based, human. The conditions noted are these: Homo sapiens, MCF7, 72 h. The protocol:
(§1) The antiproliferative activity of aromatic oligosulfides 1–6 was determined against human cell lines, including colon carcinoma HCT-116, breast adenocarcinoma MCF-7, lung adenocarcinoma A-549, colorectal carcinoma SW-480, and non-tumourigenic WI-38, using the MTT assay (Table 4). […] However, some selectivity for cancer cells was evident and the IC50 values for non-tumourigenic cells were slightly higher for compounds 1 and 2.
(§2) Cell survival was determined by the MTT [3-(4,5-[…])-2,5-diphenyl tetrazolium bromide] assay by Niks method with small modifications. HCT-116 (colon carcinoma), MCF-7 (breast adenocarcinoma), A-549 (lung adenocarcinoma) and SW-480 (colorectal carcinoma) human cancer cell lines and WI-38 (cell line composed of fibroblasts) were cultured in DMEM (PanEco, Moscow, Russia) with Glutamin (PanEco, Moscow, Russia) and antibiotics (PanEco, Moscow, Russia) in CO2 (5%) at 37 °C. The compounds were dissolved (20 mM) in DMSO and then added to the cell culture medium at the required concentration with a maximum DMSO content of 0.5 v/v%. At these concentrations, DMSO had no effect on cell viability, as was shown in the control experiments. Cells were cultured in 96-well plates (7000 cells/well) and treated with various concentrations (from […]) of the test compounds as well as doxorubicin at 37 °C for 72 h. Cell viability was determined using the MTT assay, which quantified dehydrogenase activity. Then, the cells were incubated at 37 °C for 50 min with a solution of MTT ([…], 5 mg × mL^−1) (Sigma-Aldrich, St. Louis, MO, USA). The supernatant was discarded, and cells were dissolved in DMSO ([…]). The optical density of the solution was measured at 570 nm with use of a multiwall-plate reader (Anthos Zenyth 2000rt, Biochrom, Cambridge, UK), and the percentage of surviving cells was calculated from the absorbance of untreated cells. Each experiment was repeated at least three times, and each concentration was tested in at least three replicates. Data were presented as a graph of the percentage of surviving cells versus the concentration of the test substances. The meanings of 50% inhibition concentration (IC50) with standard deviation were calculated using GraphPad Prism Version 5.03 for Windows (GraphPad Software, San Diego, CA, USA).

Assay [2] relates to A-549. Kind of assay: MTT assay. It counts as cell-based, human. As to conditions: Homo sapiens, A549, 72 h. Here is the method:
as §1, §2
In general terms: Tetrazolium dyes change colour on reduction, which living cells bring about.

Assay [3] is described as follows: TBARS accumulation in oleic acid oxidation. The conditions noted are these: 1 mmol/L additive, 65 °C, 3 h. Here is the method:
The total antioxidant activity of compounds 1–6 during the oxidation of oleic acid with atmospheric oxygen at 65 °C for 3 h was determined by standard methods according to the level of accumulation of the main metabolites. Hydroperoxides as primary products (LOOH) and secondary LPO carbonyl products formed colored complexes with thiobarbituric acid (TBARS).
The kinetics of LOOH and TBARS formation was similar in the control test and in the presence of the studied compounds. The exponential kinetic curves of LOOH accumulation in oleic acid corresponded to the equation CLOOH = a × e^kt with correlation coefficients close to 1. It indicated a pseudo-first order of reaction in the substrate, inherent in a radical process with degenerate chain branching (Figure 2). The kinetic curves of secondary carbonyl products were linear and corresponded to the equation CTBARS = kt + b, with correlation coefficients close to 1 (Figure 3).
The accumulation rate for the final oxidation products (TBARS) was determined according to a modified standard method. Samples (0.01 mL) of oleic acid were taken from the thermostat every 30 min. They were introduced into a test tube containing a mixture of Tris buffer (0.8 mL), distilled water (1.2 mL), and freshly prepared thiobarbituric acid solution (0.8%, 1 mL). The tube was placed for 10 min in a boiling water bath, and after cooling, the absorption of the samples was measured in comparison with that of the control at λ = 532 nm. A similar mixture, but without added oleic acid, was used as the control. The concentration of carbonyl compounds was calculated according to the formula:
[TBARS] = (E × 3)/0.156, where [TBARS] is the content of carbonyl compounds, nM; E is the extinction of a sample relative to the control; 3 is the sample volume, mL; and 0.156 is the extinction of malondialdehyde (1 nmol) dissolved in 1 mL at λ = 532 nm.

Assay [4] can be described thus: FRAP assay (ferric reducing antioxidant power). As to conditions: Trolox equivalents. The protocol:
The assessment of antioxidant activity was also carried out by the FRAP (Ferric Reduction Aantioxidant Power) method based on electron transfer similar to the CUPRAC method, while in the DPPH test, the reaction proceeded according to the HAT mechanism. Antioxidant activity of compounds 1–6 was also calculated in Trolox equivalents (TEACFRAP). […] The lowest activity was obtained for trisulfide 1 and disulfide 5, which are characterized by the absence of functional groups in the benzene ring. The TEACFRAP values for disulfide 2 with a methoxy group and compounds 4 and 6 with a phenolic fragment differed insignificantly and amounted to 0.58 and 0.69 Trolox equivalents.
The sample solution (0.1 mL) was mixed with 0.1 mL phosphate buffer (0.2 M, pH 6.6) and 0.1 mL potassium ferricyanide (1%). For each test compound different concentrations in EtOH were used (5, 10, 25, 50, 100, 200 and 250 μM). The resulting mixture was incubated at 50 °C for 20 min. After the incubation period, 0.1 mL trichloroacetic acid (10%), 0.5 mL deionized water, and 0.1 mL ferric chloride (0.1%) were added to the mixture. The sample absorbance was read at 700 nm with a 96-cell microplate spectrophotometer. The reduction of Fe (III) to Fe (II) could be expressed as % inhibition or equivalent of a standard compound (e.g., Trolox).

For orientation: IC50 means the concentration needed to halve the response being measured. Lower therefore signals inhibition by little substance. As for `c1ccc(SSSc2ccccc2)cc1` [Compound 1, diphenyl trisulfide], the IC50 in assay [1] stood at 37.6 ± 3.7 µM; in assay [2], 43.6 ± 10.1 µM. Besides, the “TBARS, % Inhibition” value in assay [3] turned out to be 21.0 ± 0.18%. Moreover, in assay [4], the “TEAC FRAP” value worked out at 0.06 ± 0.01.
`COc1ccccc1SSc1ccccc1OC` [Compound 2, bis(2-methoxyphenyl) disulfide]: the 50% inhibitory concentration (IC50) in assay [1] worked out at 30.5 ± 5.2 µM; in assay [2] it was 29.6 ± 7.5 µM. Moreover, the “TBARS, % Inhibition” value in assay [3] was 42.9 ± 0.76%. In addition, in assay [4], the “TEAC FRAP” value is 0.58 and 0.58 ± 0.05.
Turning to `COc1ccc(SSc2ccc(OC)c(OC)c2)cc1OC` [Compound 3, bis(3,4-dimethoxyphenyl) disulfide], the IC50 in assay [1] is 37.7 ± 2.7 µM; in assay [2] it was 15.5 ± 3.4 µM.
For `Oc1ccc(SSc2ccc(O)cc2)cc1` [Compound 4, 4,4′-dihydroxydiphenyl disulfide], the figures for the half-maximal inhibitory concentration (IC50) in assay [1] and in assay [2] were 45.3 ± 3.1 µM and 29.7 ± 6.1 µM, respectively. Moreover, the “TBARS, % Inhibition” value in assay [3] is reported as 39.0 ± 0.49%. Besides, the “TEAC FRAP” value in assay [4] is 0.69 and 0.69 ± 0.07.
On to `c1ccc(SSc2ccccc2)cc1` [Compound 5, diphenyl disulfide], for which the IC50 in assay [1] turned out to be 34.8 ± 12.2 µM; in assay [2], 39.2 ± 8.7 µM. Further, the “TEAC FRAP” value in assay [4] was 0.06 ± 0.05.
For `CC(C)(C)c1cc(SSc2cc(C(C)(C)C)c(O)c(C(C)(C)C)c2)cc(C(C)(C)C)c1O` [Compound 6, bis(3,5-di-tert-butyl-4-hydroxyphenyl) disulfide], the half-maximal inhibitory concentration (IC50) in assay [1] and in assay [2] was > 50 µM throughout. Also, in assay [4], the “TEAC FRAP” value is 0.69 and 0.69 ± 0.02.
